Legend:
Type in all cases: in vivo, human
[1] = system: breast cancer; experiment: AZURE trial, MAF FISH stratification: disease free survival (DFS); details: MAF negative post menopausal patients; zoledronic acid treatment; 95% CI 0.33-0.95
Source text: (§1) The MAF FISH assay was produced by Kreatech for Inbiomotion based on KREATECH proprietary FISH technology. The probe set contains two probes: a MAF 16q23 probe plus a D16Z3 probe as control of chromosome 16 centromeric region. The assay was validated using a 16q23/D16Z3 probe (Inbiomotion) and Poseidon Tissue Digestion Kit from Kreatech. The scoring criteria were defined in a fact sheet and as follows: two FISH evaluable results per patient, and the highest value was selected. The scoring algorithm was as follows: 20 cells counted for target and centromere amplification, if the gene count is >2 and ≤3, then 50 cells were counted. […]
(§2) numerical and categorical (+/− cut-off>=2.5) variable; % of nucleic MAF amplified (MAF CN>2):numberical+categorical (cut-off TBD). […] The following clinical variables were analyzed: disease-free survival (DFS), invasive disease-free survival (IDFS), overall survival (OS), first recurrence in bone, bone recurrence at any time, time to first DFS event in bone, time to first DFS event not in bone, response to zoledronic acid treatment.
(§3) In analyzing the MAF FISH prognostic value, the patients from the control and treatment arms were pooled for the initial analysis. Optimized cut-offs for each variable to be analyzed were used when indicated. […]

[2] = system: breast cancer; experiment: AZURE trial, MAF FISH stratification: invasive disease free survival (IDFS) / time to recurrence; details: MAF positive patients (>=2.2) in the zoledronic acid treatment arm; p<0.001, multivariate analysis
Source text: as §1, §2, §3

[3] = system: breast cancer; experiment: AZURE trial, retrospective MAF FISH stratification: time to bone metastasis (zoledronic acid arm vs control arm)
Source text: The MAF FISH assay was produced by Kreatech for Inbiomotion based on KREATECH proprietary FISH technology. The probe set contains two probes: a MAF 16q23 probe plus a D16Z3 probe as control of chromosome 16 centromeric region. The assay was validated using a 16q23/D16Z3 probe (Inbiomotion) and Poseidon Tissue Digestion Kit from Kreatech. The scoring criteria were defined in a fact sheet and as follows: two FISH evaluable results per patient, and the highest value was selected. The scoring algorithm was as follows: 20 cells counted for target and centromere amplification, if the gene count is >2 and ≤3, then 50 cells were counted.
An overview of the AZURE clinical trial (Coleman et al N Eng J Med 2011; 365: 1396-1405 and AZURE Current Controlled Trials number, ISRCTN79831382 and ClinicalTrials.gov identifier NCT00072020) study design, whose patients were used to validate MAF, is provided in FIG. 2. MAF was validated in a retrospective analysis of the AZURE trial using patient tumor sample prospectively collected under regulatory compliant conditions. Out of the 3360 patients recruited, 1,769 donated tumor tissue (52.4%). There were 13 TMAs (tissue micro array) (150 patient samples each) (1,769 patients). There were 4 replicas of each TMA using different tissue cores (6,326 (4×patient)). One TMA had only 1 replica and two TMAs had three replicas. Based on the H&E analysis (hematoxilyin and eosin) (FIG. 3) (6,326): 3978 cores were evaluable (63%) and 2348 were nonevaluable.
For the FISH assay, there were 2,067 FISH evaluable cores (56%). […] 567 patients were nonevaluable by FISH in any of the 4 replicas (32%).
numerical and categorical (+/− cut-off>=2.5) variable; % of nucleic MAF amplified (MAF CN>2):numberical+categorical (cut-off TBD). For the IHC analysis: IHC H-Score: numerical+categorical (cut-off=200), IHC OD: numerical+categorical (cut-off tBD). The following clinical variables were analyzed: disease-free survival (DFS), invasive disease-free survival (IDFS), overall survival (OS), first recurrence in bone, bone recurrence at any time, time to first DFS event in bone, time to first DFS event not in bone, response to zoledronic acid treatment.
In analyzing the MAF FISH prognostic value, the patients from the control and treatment arms were pooled for the initial analysis. Optimized cut-offs for each variable to be analyzed were used when indicated. Death as a competing event was used in time to bone metastasis, anytime. The following clinical variables were analyzed: time to bone metastasis (anytime), time to bone metastasis (as first event), IDFS (including ipsilateral invasive breast tumor recurrence, regional invasive breast cancer recurrence, metastatic disease-breast cancer, death attributable to any cause, including breast cancer, contralateral invasive breast cancer, second primary non-breast invasive cancer), and overall survival.
The control and zoledronic acid treatment arms from the AZURE study described in Example 1 were evaluated to determine the effect of zoledronic acid treatment on MAF-stratified patients.

[4] = system: breast cancer; experiment: AZURE trial, MAF FISH stratification: overall survival (OS); details: MAF negative post menopausal patients; zoledronic acid treatment; 95% CI 0.31-1.01
Source text: as §1, §2, §3

O=P(O)(O)C(O)(Cn1ccnc1)P(=O)(O)O [zoledronic acid]
Hazard ratio (HR), DFS outcome [1]: 0.56 | Hazard ratio (HR), time to recurrence (invasive disease) [2]: 0.52 | Hazard ratio (HR), risk of bone metastasis at any time ([3]; MAF FISH not positive patients, pre-specified cut off 2.5, zoledronic acid treatment vs control, death as competing event, p=0.03): 0.65 | Hazard ratio (HR), time to a bone metastatic event (anytime) ([3]; MAF non-positive non-post-menopausal patients, cut off 2.5, p=0.08): 0.66 | Hazard ratio (HR), time to a bone metastatic event (anytime) ([3]; MAF non-positive postmenopausal patients, cut off 2.5, limited number of events): 0.63 | Hazard ratio (HR), time to a bone metastatic event (anytime) ([3]; MAF positive non-post-menopausal patients, cut off 2.5, p=0.045): 2.44 | Hazard ratio (HR), risk of bone metastasis at any time ([3]; MAF positive patients, cut off 2.5, zoledronic acid treatment vs control, non-significant, p=0.22): 1.54 | Hazard ratio (HR), time to a bone metastatic event (anytime) ([3]; MAF positive postmenopausal patients (>2.5), treatment outcome, p=0.26, limited number of events): 0.46 | Hazard ratio (HR), risk of bone metastasis at any time ([3]; zoledronic acid arm, MAF FISH not positive (<2.3) compared to MAF FISH positive patients, p=0.01): 0.52 | Hazard ratio (HR), overall survival outcome [4]: 0.56

From patent US11596642B2, “Therapeutic treatment of breast cancer based on c-MAF status” (INBIOMOTION S.L., priority 2016, dated 2023)
